Assay results: ChEMBL document CHEMBL1811837 (Bioorg Med Chem, 2011)
The source made the active and inactive calls. No cut-off for these calls is given here.

Key:
[1] = target: Sigma non-opioid intracellular receptor 1 (Cavia porcellus, UniProt Q60492)
Description: Displacement of [3H](+)-pentazocine from guinea pig brain sigma-1 receptor after 90 mins by liquid scintillation counter

[2] = target: T1, D(2) dopamine receptor (Homo sapiens, UniProt P14416); assay: biochemical
[3] = target: T2, D(4) dopamine receptor (Homo sapiens, UniProt P21917); assay: biochemical
T2 sequence (P21917 whole entry): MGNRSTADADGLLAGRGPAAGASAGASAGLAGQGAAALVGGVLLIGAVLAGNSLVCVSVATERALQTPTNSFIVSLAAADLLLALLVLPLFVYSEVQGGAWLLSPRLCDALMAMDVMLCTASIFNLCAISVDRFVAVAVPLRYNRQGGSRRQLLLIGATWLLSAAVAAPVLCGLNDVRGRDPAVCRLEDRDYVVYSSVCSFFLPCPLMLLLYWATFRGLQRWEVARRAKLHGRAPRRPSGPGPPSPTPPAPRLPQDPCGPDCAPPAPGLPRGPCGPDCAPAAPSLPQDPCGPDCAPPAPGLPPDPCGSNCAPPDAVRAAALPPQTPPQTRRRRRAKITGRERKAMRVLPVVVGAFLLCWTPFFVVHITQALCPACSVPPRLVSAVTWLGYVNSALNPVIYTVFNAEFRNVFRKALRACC

[4] = target: T3, D(3) dopamine receptor (Homo sapiens, UniProt P35462); assay: biochemical
[5] = target: T1, D(2) dopamine receptor; assay: Intrinsic efficacy at human recombinant D2L receptor expressed in HEK cells assessed as assessed as inhibition of forskolin-induced [3H]cAMP production after 20 mins by […]; format: functional, cell-based; parameters: scale not given: the % may be the effect or the level left; conditions: HEK293
[6] = target: T1, D(2) dopamine receptor; assay: Partial agonist activity at human recombinant D2L receptor expressed in HEK cells assessed as inhibition of forskolin-induced [3H]cAMP production at 10 times Ki after 20 mins by […]; format: functional, cell-based; conditions: HEK293
[7] = target: T3, D(3) dopamine receptor; assay: Partial agonist activity at human recombinant D3 receptor expressed in HEK cells assessed as inhibition of forskolin-induced [3H]cAMP production at 10 times Ki after 20 mins by […]; format: functional, cell-based; conditions: HEK293
[8] = target: T1, D(2) dopamine receptor

T1 sequence (P14416 whole entry): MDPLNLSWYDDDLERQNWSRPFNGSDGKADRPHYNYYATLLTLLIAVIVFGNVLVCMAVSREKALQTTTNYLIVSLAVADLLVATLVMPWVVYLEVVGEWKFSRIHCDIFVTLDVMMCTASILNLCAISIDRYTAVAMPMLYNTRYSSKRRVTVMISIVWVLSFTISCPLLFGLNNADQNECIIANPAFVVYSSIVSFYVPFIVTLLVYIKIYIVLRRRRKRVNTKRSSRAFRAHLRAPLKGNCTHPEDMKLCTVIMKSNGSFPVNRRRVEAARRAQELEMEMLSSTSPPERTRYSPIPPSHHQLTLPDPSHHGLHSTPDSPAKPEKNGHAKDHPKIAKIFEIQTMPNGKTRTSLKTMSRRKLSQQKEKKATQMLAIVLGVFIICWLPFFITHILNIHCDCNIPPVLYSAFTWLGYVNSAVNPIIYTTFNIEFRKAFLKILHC
T3 sequence (P35462 whole entry): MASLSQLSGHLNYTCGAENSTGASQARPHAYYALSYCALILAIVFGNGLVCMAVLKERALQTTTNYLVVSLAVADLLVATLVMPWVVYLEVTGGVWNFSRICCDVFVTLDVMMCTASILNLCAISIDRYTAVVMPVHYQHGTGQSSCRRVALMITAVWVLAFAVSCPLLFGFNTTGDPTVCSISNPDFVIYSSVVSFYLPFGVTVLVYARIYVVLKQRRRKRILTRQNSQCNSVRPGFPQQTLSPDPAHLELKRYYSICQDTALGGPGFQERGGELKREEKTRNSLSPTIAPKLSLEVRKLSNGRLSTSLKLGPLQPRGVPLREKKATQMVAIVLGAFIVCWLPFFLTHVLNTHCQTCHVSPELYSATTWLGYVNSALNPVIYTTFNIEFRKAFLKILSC
Sequence of Sigma non-opioid intracellular receptor 1 (Q60492 whole entry): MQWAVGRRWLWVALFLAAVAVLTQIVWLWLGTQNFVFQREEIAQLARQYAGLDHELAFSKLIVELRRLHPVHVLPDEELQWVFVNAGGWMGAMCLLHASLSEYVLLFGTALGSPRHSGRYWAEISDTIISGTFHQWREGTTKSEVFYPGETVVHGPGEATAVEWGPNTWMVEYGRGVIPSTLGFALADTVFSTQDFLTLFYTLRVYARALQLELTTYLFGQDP

**Q.** `COc1ccc(N2CCN(CCCCOc3ccc4c(c3)NC(=O)CC4)CC2)cc1` was tested. Which Ki [1] did it give?
**A.** Its Ki is 170 nM.

**Q.** And the Ki [2]?
**A.** The Ki was 102 nM.

**Q.** And the Ki [3]?
**A.** The Ki was 359 nM.

**Q.** And the Ki [4]?
**A.** The Ki was 930 nM.

**Q.** Which results are given for `O=C1CCc2ccc(OCCCCN3CCN(c4ccccc4OCCF)CC3)cc2N1`?
**A.** Ki [1]: 13600 nM; Activity [5]: 16%; Ki [2]: 0.26 nM; Ki [3]: 185 nM; Activity [6]: Active; Ki [4]: 13.5 nM; Activity [7]: Active

**Q.** With `COc1ccccc1N1CCN(CCCCOc2ccc3c(c2)NC(=O)CC3)CC1` as the molecule, how does the Ki [1] read?
**A.** Its Ki is 1180 nM.

**Q.** Which results are given for `O=C1CCc2ccc(OCCCCN3CCC(n4c(=O)[nH]c5cc(Cl)ccc54)CC3)cc2N1`?
**A.** Ki [2]: 309 nM; Ki [3]: 1350 nM; Ki [4]: 574 nM

**Q.** `COc1ccccc1N1CCN(CCCOc2ccc3c(c2)NC(=O)CC3)CC1` was tested. Which Ki [8] did it give?
**A.** Its Ki is 4.8 nM.

**Q.** And the Ki [1]?
**A.** The Ki was 759 nM.

**Q.** And the Ki [3]?
**A.** The Ki was 38.5 nM.

**Q.** And the Ki [4]?
**A.** Its Ki is 7.4 nM.

**Q.** For `O=c1ccc2ccc(OCCCCN3CCN(c4ccccc4OCCF)CC3)cc2[nH]1`, which Ki [1] is on record?
**A.** The Ki was 20900 nM.

**Q.** And the Ki [2]?
**A.** Its Ki is 0.07 nM.

**Q.** What about the Ki [3] of the same molecule?
**A.** The Ki was 31.9 nM.

**Q.** And the Ki [4]?
**A.** Its Ki is 2.7 nM.

**Q.** `COc1ccccc1N1CCN(CCCCCOc2ccc3ccc(=O)[nH]c3c2)CC1` was tested. Which Ki [1] did it give?
**A.** Its Ki is 1610 nM.

**Q.** And the Ki [2]?
**A.** The Ki was 7.4 nM.

**Q.** And the Ki [3]?
**A.** The Ki was 201 nM.

**Q.** And the Ki [4]?
**A.** Its Ki is 3.8 nM.

**Q.** With `COc1ccccc1N1CCN(CCCCCOc2ccc3c(c2)NC(=O)CC3)CC1` as the molecule, how does the Ki [1] read?
**A.** The Ki was 1350 nM.

**Q.** Which Ki [1] does the source give for `O=C1CCc2ccc(OCCCCN3CCC(O)(c4ccc(Cl)cc4)CC3)cc2N1` here?
**A.** The Ki was 417 nM.

**Q.** And the Ki [2]?
**A.** The Ki was 2600 nM.

**Q.** What about the Ki [3] of the same molecule?
**A.** The Ki was 1310 nM.

**Q.** What about the Ki [4] of the same molecule?
**A.** Its Ki is 1540 nM.

**Q.** Which Ki [1] does the source give for `COc1ccc(N2CCN(CCCCOc3ccc4c(c3)NC(=O)CC4)CC2)c(OC)c1` here?
**A.** Its Ki is 620 nM.

**Q.** And the Ki [2]?
**A.** The Ki was 25.3 nM.

**Q.** And the Ki [3]?
**A.** Its Ki is 286 nM.

**Q.** What about the Ki [4] of the same molecule?
**A.** The Ki was 785 nM.

**Q.** `O=C1CCc2ccc(OCCCCN3CCC(n4c(=O)[nH]c5ccccc54)CC3)cc2N1` was tested. Which Ki [2] did it give?
**A.** The Ki was 145 nM.

**Q.** And the Ki [3]?
**A.** Its Ki is 1030 nM.

**Q.** And the Ki [4]?
**A.** The Ki was 879 nM.

**Q.** Which Ki [2] does the source give for `CN1CN(c2ccccc2)C2(CCN(CCCCOc3ccc4c(c3)NC(=O)CC4)CC2)C1=O` here?
**A.** The Ki was 611 nM.

**Q.** What about the Ki [3] of the same molecule?
**A.** The Ki was 865 nM.

**Q.** And the Ki [4]?
**A.** The Ki was 427 nM.

**Q.** With `COc1cc(C)ccc1N1CCN(CCCCOc2ccc3c(c2)NC(=O)CC3)CC1` as the molecule, how does the Ki [1] read?
**A.** The Ki was 377 nM.

**Q.** What about the Ki [2] of the same molecule?
**A.** The Ki was 4.6 nM.

**Q.** And the Ki [3]?
**A.** The Ki was 27.2 nM.

**Q.** And the Ki [4]?
**A.** Its Ki is 251 nM.

**Q.** For `COc1ccccc1N1CCN(CCCOc2ccc3ccc(=O)[nH]c3c2)CC1`, which Ki [1] is on record?
**A.** The Ki was 2600 nM.

**Q.** And the Ki [2]?
**A.** The Ki was 2.6 nM.

**Q.** What about the Ki [3] of the same molecule?
**A.** Its Ki is 52.7 nM.

**Q.** What about the Ki [4] of the same molecule?
**A.** The Ki was 5.7 nM.

**Q.** `COc1ccccc1N1CCN(CCCCOc2ccc3ccc(=O)[nH]c3c2)CC1` was tested. Which Ki [1] did it give?
**A.** Its Ki is 2630 nM.

**Q.** And the Ki [2]?
**A.** The Ki was 0.14 nM.

**Q.** What about the Ki [3] of the same molecule?
**A.** The Ki was 30.1 nM.

**Q.** What about the Ki [4] of the same molecule?
**A.** Its Ki is 5.4 nM.
